Tests used:
A549-ACE2 [1] = assay: phospholipidosis EC50; higher = less potent phospholipidosis inducer
Caco-2 [2] = assay: cell viability relative to DMSO; higher = less toxic; conditions: 72 h
Vero E6 [3] = assay: as above; conditions: 72 h
Calu-3 [4] = assay: as above; conditions: 72 h
HepG2 [5] = assay: as above; conditions: 72 h
A549-ACE2 [6] = assay: drug-induced phospholipidosis relative to tamoxifen; higher = more phospholipidosis
[7] = tested on: A549-ACE2 infected with SARS-CoV-2; assay: morphology score (similarity to uninfected cells); higher = more like uninfected cells; conditions: 24 h
Caco-2 [8] = assay: drug sensitivity score (DSS) for viability; higher = more toxic; extreme values may be limits of the assay; conditions: 72 h
Vero E6 [9] = assay: as above; conditions: 72 h
Calu-3 [10] = assay: as above; conditions: 72 h
HepG2 [11] = assay: as above; conditions: 72 h
[12] = tested on: A549-ACE2 infected with SARS-CoV-2; assay: SARS-CoV-2 infection rate relative to DMSO; higher = more infection; conditions: 24 h
Caco-2 [13] = assay: relative viability EC50 (midpoint between 100% and the lowest measured viability); higher = less toxic; conditions: 72 h
Vero E6 [14] = assay: as above; conditions: 72 h
Calu-3 [15] = assay: as above; conditions: 72 h
[16] = tested on: A549-ACE2 infected with SARS-CoV-2; assay: cell count relative to DMSO; higher = less toxic; conditions: 24 h
U2OS [17] = assay: cell viability relative to DMSO; higher = less toxic; conditions: 72 h
U2OS [18] = assay: drug sensitivity score (DSS) for viability; higher = more toxic; extreme values may be limits of the assay; conditions: 72 h
U2OS [19] = assay: relative viability EC50 (midpoint between 100% and the lowest measured viability); higher = less toxic; conditions: 72 h
HepG2 [20] = assay: as above; conditions: 72 h

COc1ccc2cc1Oc1ccc(cc1)C[C@H]1c3cc(c(OC)cc3CCN1C)Oc1c(OC)c(OC)cc3c1[C@H](C2)N(C)CC3 [tetrandrine]
Conditions	SARS-CoV-2 infection rate [%]	cell count [%]	cell viability [%]	morphology score	phospholipidosis EC50 [µM]
A549-ACE2 [1], 24 h	–	–	–	–	7
A549-ACE2 [1], 48 h	–	–	–	–	10.2
A549-ACE2 [1], 72 h	–	–	–	–	5.6
Caco-2 [2], 1 nM	–	–	100	–	–
Caco-2 [2], 10 nM	–	–	97.9	–	–
Caco-2 [2], 100 nM	–	–	92.1	–	–
Caco-2 [2], 1000 nM	–	–	95.4	–	–
Caco-2 [2], 10000 nM	–	–	79.5	–	–
Calu-3 [4], 1 nM	–	–	88.3	–	–
Calu-3 [4], 10 nM	–	–	109	–	–
Calu-3 [4], 100 nM	–	–	91.3	–	–
Calu-3 [4], 1000 nM	–	–	99.9	–	–
Calu-3 [4], 10000 nM	–	–	29.1	–	–
HepG2 [5], 1 nM	–	–	104	–	–
HepG2 [5], 10 nM	–	–	102	–	–
HepG2 [5], 100 nM	–	–	97.7	–	–
HepG2 [5], 1000 nM	–	–	94.1	–	–
HepG2 [5], 10000 nM	–	–	71.5	–	–
Vero E6 [3], 1 nM	–	–	100	–	–
Vero E6 [3], 10 nM	–	–	94.2	–	–
Vero E6 [3], 100 nM	–	–	94.6	–	–
Vero E6 [3], 1000 nM	–	–	94.4	–	–
Vero E6 [3], 10000 nM	–	–	92.6	–	–
[7], 0.3 µM	–	–	–	0.37	–
[7], 3 µM	–	–	–	0.79	–
[7], 10 µM	–	–	–	0.07	–
[7], 30 µM	–	–	–	-0.15	–
[12], 0.3 µM	92	–	–	–	–
[12], 3 µM	23	–	–	–	–
[12], 10 µM	21	–	–	–	–
[12], 30 µM	42	–	–	–	–
[16], 0.3 µM	–	106	–	–	–
[16], 3 µM	–	115	–	–	–
[16], 10 µM	–	119	–	–	–
[16], 30 µM	–	79	–	–	–

drug-induced phospholipidosis [%], A549-ACE2 [6]
Conditions	0.3 µM	0.833333 µM	3.33333 µM	6.66667 µM	10 µM	30 µM
24 h	16.2	29.5	61.4	78	92.7	115
48 h	16.2	22.2	51.1	78.8	101	145
72 h	8.49	16.5	49.2	80.6	103	176

Conditions	drug sensitivity score	relative viability EC50 [µM]
Caco-2 [8]	0.7	–
Caco-2 [13]	–	> 10
Calu-3 [10]	3.9	–
Calu-3 [15]	–	3.15
HepG2 [11]	2.1	–
Vero E6 [9]	0	–
Vero E6 [14]	–	> 10

CC[C@@]1([C@H]2O[C@H]([C@H]3O[C@@](O)(CO)[C@H](C)C[C@@H]3C)C[C@H]2C)CC[C@H]([C@@]2(C)CC[C@]3(C[C@H](O)[C@@H](C)[C@@H]([C@H](C)[C@H](OC)[C@@H](C)C(=O)O)O3)O2)O1 [MONENSIN SODIUM]
Conditions	SARS-CoV-2 infection rate, [12] [%]	cell count, [16] [%]	cell viability, Caco-2 [2] [%]	cell viability, Calu-3 [4] [%]	cell viability, HepG2 [5] [%]	cell viability, U2OS [17] [%]	cell viability, Vero E6 [3] [%]	morphology score, [7]
1 nM	–	–	93.9	99	94.6	99.5	96.7	–
10 nM	–	–	93.4	93.1	107	96.2	103	–
100 nM	–	–	109	89.9	91.8	99.3	95.6	–
0.3 µM	50	114	–	–	–	–	–	0.72
1000 nM	–	–	56.9	68	82.9	97.1	103	–
3 µM	61	108	–	–	–	–	–	0.85
10000 nM	–	–	20.9	36.9	26.2	35.4	102	–
10 µM	25	115	–	–	–	–	–	0.83
30 µM	17	119	–	–	–	–	–	0.82

drug-induced phospholipidosis [%], A549-ACE2 [6]
Conditions	0.3 µM	0.833333 µM	3.33333 µM	6.66667 µM	10 µM	30 µM
24 h	-1.18	-1.15	0.94	1.15	-4.98	-12.7
48 h	5.4	3.73	5.09	-3.84	-2.31	-14.7
72 h	6.27	4.79	7.82	–	–	–

Conditions	drug sensitivity score	relative viability EC50 [µM]
Caco-2 [8]	9.7	–
Caco-2 [13]	–	0.934
Calu-3 [10]	7.5	–
Calu-3 [15]	–	0.789
HepG2 [11]	6.8	–
HepG2 [20]	–	1.61
U2OS [18]	3.9	–
U2OS [19]	–	2.83
Vero E6 [9]	0	–
Vero E6 [14]	–	> 10
